Data: patent US20230058171A1, “NEW ORAL PHARMACEUTICAL COMPOSITION FOR CANCER THERAPY” (BOEHRINGER INGELHEIM INTERNATIONAL GMBH, priority 2021, published 2023)

Legend:
[1] = tested on: SJSA-1 xenograft; assay: Mouse SJSA-1 xenograft experiment: minimum effective AUC; format: in vivo; details: QW
Procedure: Preliminary pharmacokinetic (PK) data were used as supportive information for the dose decision. The human therapeutic dose was predicted based on a minimum effective AUC0-168 of 30,700 nM*h (QW), which was determined in a mouse SJSA-1 xenograft experiment. For this, the difference in plasma protein binding between human and mouse was taken into account, which translated to an effective AUC0-168 of 11,350 nM*h for QW dosing in humans. The human therapeutic dose was predicted to be 64 mg (free acid) with QW dosing.

[2] = tested on: patients; assay: Trial 1403-0002 combination with ezabenlimab (and anti-LAG3-1): adverse events; details: for AEs leading to Discontinuation: Dose limiting toxicity, % / AEs leading to Discontinuation: Other adverse event, % / Patients with Dose limiting toxicity (cycle one), % / Serious AEs: Cogenital Anomaly or Birth Defect, % / Serious AEs: Is Life Threatening, % / Serious AEs: Other Medically Important Serious Event, % / Serious AEs: Persists of Signif. Disability/Incapacity, % / Serious AEs: Requires or Prolongs Hospitalization, % / Serious AEs: Results in Death, % / Subjects with AEs leading to Discontinuation of trial drug, % / Subjects with AEs leading to dose reduction of trial drug, % / Subjects with any AE, % / Subjects with immune-related AEs, % / Subjects with infusion related reactions, % / Subjects with investigator defined drug-related AEs, % / Subjects with maximum CTC Grade 1, % / Subjects with maximum CTC Grade 2, % / Subjects with maximum CTC Grade 3, % / Subjects with maximum CTC Grade 4, % / Subjects with maximum CTC Grade 5, % / Subjects with serious AEs, %: triple combination D1 q3w
[3] = tested on: patients with advanced or metastatic solid tumors; assay: Trial 1403-0001 dose finding: MTD/RDE, BLRM analysis with overdose control (EWOC); format: in vivo; details: for N of evaluable patients with events of interests: all cycles
Excerpt: Preliminary pharmacokinetic (PK) data were also used as supportive information for the dose decision.

[4] = double combination with 240 mg ezabenlimab, 15 patients

SMILES: Cc1c(C(=O)O)ccc2c3n(nc12)[C@@H]1[C@H](C3)N(CC2CC2)[C@@]2(C(=O)Nc3cc(Cl)ccc32)[C@H]1c1cccc(Cl)c1F [MDM2-antagonist of formula I, (2′S,3′S,3a'S,10a'S)-6-chloro-3′-(3-chloro-2-fluorophenyl)-1′-(cyclopropylmethyl)-6′-methyl-2-oxo-1,2,3′,3a′,10′,10a′-hexahydro-1′H-spiro[indole-3,2′-pyrrolo[2′,3′:4,5]pyrrolo[1,2-b]indazole]-7′-carboxylic acid]
- minimum effective AUC0-168 [1]: 30,700 nM*h
- DLTs reported after cycle 1 [2, 4]: Four
- patients with Grade ≥3 adverse events [2, 4]: eight
- patients with Grade ≥3 anemia [2, 4]: 6 patients
- patients with Grade ≥3 lymphopenia [2, 4]: 3 patients
- patients with Grade ≥3 thrombocytopenia [2, 4]: 4 patients
- patients with a DLT during cycle 1 ([2]; double combination with 240 mg ezabenlimab, 15 patients, Grade 2 neutropenia at 45 mg): One
- safety profile ([2]; double combination, 30 mg or 45 mg + 240 mg ezabenlimab D1 q3w): manageable safety profile
- AEs leading to Discontinuation: Dose limiting toxicity, % ([2]; 10 mg): 0%
- AEs leading to Discontinuation: Other adverse event, % ([2]; 10 mg): 0%
- Patients with Dose limiting toxicity (cycle one), % ([2]; 10 mg): 0%
- Serious AEs: Cogenital Anomaly or Birth Defect, % ([2]; 10 mg): 0%
- Serious AEs: Is Life Threatening, % ([2]; 10 mg): 0%
- Serious AEs: Other Medically Important Serious Event, % ([2]; 10 mg): 0%
- Serious AEs: Persists of Signif. Disability/Incapacity, % ([2]; 10 mg): 0%
- Serious AEs: Requires or Prolongs Hospitalization, % ([2]; 10 mg): 0%
- Serious AEs: Results in Death, % ([2]; 10 mg): 0%
- Subjects with AEs leading to Discontinuation of trial drug, % ([2]; 10 mg): 0%
- Subjects with AEs leading to dose reduction of trial drug, % ([2]; 10 mg): 0%
- Subjects with any AE, % ([2]; 10 mg): 100%
- Subjects with immune-related AEs, % ([2]; 10 mg): 0%
- Subjects with infusion related reactions, % ([2]; 10 mg): 33.3%
- Subjects with investigator defined drug-related AEs, % ([2]; 10 mg): 100%
- Subjects with maximum CTC Grade 1, % ([2]; 10 mg): 33.3%
- Subjects with maximum CTC Grade 2, % ([2]; 10 mg): 66.7%
- Subjects with maximum CTC Grade 3, % ([2]; 10 mg): 0%
- Subjects with maximum CTC Grade 4, % ([2]; 10 mg): 0%
- Subjects with maximum CTC Grade 5, % ([2]; 10 mg): 0%
- Subjects with serious AEs, % ([2]; 10 mg): 0%
- AEs leading to Discontinuation: Dose limiting toxicity, % ([2]; 20 mg): 0%
- AEs leading to Discontinuation: Other adverse event, % ([2]; 20 mg): 0%
- Patients with Dose limiting toxicity (cycle one), % ([2]; 20 mg): 0%
- Serious AEs: Cogenital Anomaly or Birth Defect, % ([2]; 20 mg): 0%
- Serious AEs: Is Life Threatening, % ([2]; 20 mg): 0%
- Serious AEs: Other Medically Important Serious Event, % ([2]; 20 mg): 0%
- Serious AEs: Persists of Signif. Disability/Incapacity, % ([2]; 20 mg): 0%
- Serious AEs: Requires or Prolongs Hospitalization, % ([2]; 20 mg): 66.7%
- Serious AEs: Results in Death, % ([2]; 20 mg): 0%
- Subjects with AEs leading to Discontinuation of trial drug, % ([2]; 20 mg): 0%
- Subjects with AEs leading to dose reduction of trial drug, % ([2]; 20 mg): 0%
- Subjects with any AE, % ([2]; 20 mg): 100%
- Subjects with immune-related AEs, % ([2]; 20 mg): 33.3%
- Subjects with infusion related reactions, % ([2]; 20 mg): 0%
- Subjects with investigator defined drug-related AEs, % ([2]; 20 mg): 100%
- Subjects with maximum CTC Grade 1, % ([2]; 20 mg): 0%
- Subjects with maximum CTC Grade 2, % ([2]; 20 mg): 0%
- Subjects with maximum CTC Grade 3, % ([2]; 20 mg): 100%
- Subjects with maximum CTC Grade 4, % ([2]; 20 mg): 0%
- Subjects with maximum CTC Grade 5, % ([2]; 20 mg): 0%
- Subjects with serious AEs, % ([2]; 20 mg): 66.7%
- AEs leading to Discontinuation: Dose limiting toxicity, % ([2]; 30 mg): 0%
- AEs leading to Discontinuation: Other adverse event, % ([2]; 30 mg): 0%
- Patients with Dose limiting toxicity (cycle one), % ([2]; 30 mg): 0%
- Serious AEs: Cogenital Anomaly or Birth Defect, % ([2]; 30 mg): 0%
- Serious AEs: Is Life Threatening, % ([2]; 30 mg): 0%
- Serious AEs: Other Medically Important Serious Event, % ([2]; 30 mg): 0%
- Serious AEs: Persists of Signif. Disability/Incapacity, % ([2]; 30 mg): 0%
- Serious AEs: Requires or Prolongs Hospitalization, % ([2]; 30 mg): 66.7%
- Serious AEs: Results in Death, % ([2]; 30 mg): 0%
- Subjects with AEs leading to Discontinuation of trial drug, % ([2]; 30 mg): 0%
- Subjects with AEs leading to dose reduction of trial drug, % ([2]; 30 mg): 33.3%
- Subjects with any AE, % ([2]; 30 mg): 100%
- Subjects with immune-related AEs, % ([2]; 30 mg): 0%
- Subjects with infusion related reactions, % ([2]; 30 mg): 0%
- Subjects with investigator defined drug-related AEs, % ([2]; 30 mg): 100%
- Subjects with maximum CTC Grade 1, % ([2]; 30 mg): 0%
- Subjects with maximum CTC Grade 2, % ([2]; 30 mg): 33.3%
- Subjects with maximum CTC Grade 3, % ([2]; 30 mg): 33.3%
- Subjects with maximum CTC Grade 4, % ([2]; 30 mg): 33.3%
- Subjects with maximum CTC Grade 5, % ([2]; 30 mg): 0%
- Subjects with serious AEs, % ([2]; 30 mg): 66.7%
- AEs leading to Discontinuation: Dose limiting toxicity, % ([2]; 45 mg): 0%
- AEs leading to Discontinuation: Other adverse event, % ([2]; 45 mg): 0%
- Patients with Dose limiting toxicity (cycle one), % ([2]; 45 mg): 0%
- Serious AEs: Cogenital Anomaly or Birth Defect, % ([2]; 45 mg): 0%
- Serious AEs: Is Life Threatening, % ([2]; 45 mg): 0%
- Serious AEs: Other Medically Important Serious Event, % ([2]; 45 mg): 0%
- Serious AEs: Persists of Signif. Disability/Incapacity, % ([2]; 45 mg): 0%
- Serious AEs: Requires or Prolongs Hospitalization, % ([2]; 45 mg): 50.0%
- Serious AEs: Results in Death, % ([2]; 45 mg): 0%
- Subjects with AEs leading to Discontinuation of trial drug, % ([2]; 45 mg): 0%
- Subjects with AEs leading to dose reduction of trial drug, % ([2]; 45 mg): 50.0%
- Subjects with any AE, % ([2]; 45 mg): 100%
- Subjects with immune-related AEs, % ([2]; 45 mg): 0%
- Subjects with infusion related reactions, % ([2]; 45 mg): 0%
- Subjects with investigator defined drug-related AEs, % ([2]; 45 mg): 100%
- Subjects with maximum CTC Grade 1, % ([2]; 45 mg): 0%
- Subjects with maximum CTC Grade 2, % ([2]; 45 mg): 50.0%
- Subjects with maximum CTC Grade 3, % ([2]; 45 mg): 0%
- Subjects with maximum CTC Grade 4, % ([2]; 45 mg): 50.0%
- Subjects with maximum CTC Grade 5, % ([2]; 45 mg): 0%
- Subjects with serious AEs, % ([2]; 45 mg): 50.0%
- AEs leading to Discontinuation: Dose limiting toxicity, % ([2]; Total): 0%
- AEs leading to Discontinuation: Other adverse event, % ([2]; Total): 0%
- Patients with Dose limiting toxicity (cycle one), % ([2]; Total): 0%
- Serious AEs: Cogenital Anomaly or Birth Defect, % ([2]; Total): 0%
- Serious AEs: Is Life Threatening, % ([2]; Total): 0%
- Serious AEs: Other Medically Important Serious Event, % ([2]; Total): 0%
- Serious AEs: Persists of Signif. Disability/Incapacity, % ([2]; Total): 0%
- Serious AEs: Requires or Prolongs Hospitalization, % ([2]; Total): 45.5%
- Serious AEs: Results in Death, % ([2]; Total): 0%
- Subjects with AEs leading to Discontinuation of trial drug, % ([2]; Total): 0%
- Subjects with AEs leading to dose reduction of trial drug, % ([2]; Total): 18.2%
- Subjects with any AE, % ([2]; Total): 100%
- Subjects with immune-related AEs, % ([2]; Total): 9.1%
- Subjects with infusion related reactions, % ([2]; Total): 9.1%
- Subjects with investigator defined drug-related AEs, % ([2]; Total): 100%
- Subjects with maximum CTC Grade 1, % ([2]; Total): 9.1%
- Subjects with maximum CTC Grade 2, % ([2]; Total): 36.4%
- Subjects with maximum CTC Grade 3, % ([2]; Total): 36.4%
- Subjects with maximum CTC Grade 4, % ([2]; Total): 18.2%
- Subjects with maximum CTC Grade 5, % ([2]; Total): 0%
- Subjects with serious AEs, % ([2]; Total): 45.5%
- N of evaluable patients with events of interests ([3]; Arm A, 10 mg (1 evaluable)): 1
- N of evaluable patients with events of interests ([3]; Arm A, 20 mg (2 evaluable)): 1
- N of evaluable patients with events of interests ([3]; Arm A, 30 mg (3 evaluable)): 1
- N of evaluable patients with events of interests ([3]; Arm A, 45 mg (6 evaluable)): 1
- N of evaluable patients with events of interests ([3]; Arm A, 50 mg (4 evaluable)): 1
- N of evaluable patients with events of interests ([3]; Arm A, 60 mg (7 evaluable)): 2
- N of evaluable patients with events of interests ([3]; Arm A, 80 mg (6 evaluable)): 5
- highest dose level that fulfilled the EWOC criterion from the additional BLRM analysis ([3]; Arm A, events of interest during the entire treatment period): 45 mg
- Maximum Tolerated Dose (MTD) ([3]; monotherapy, Arm A D1 q3w): 60 mg
- Recommended Dose for Expansion (RDE) ([3]; monotherapy, Arm A D1 q3w): 45 mg
- Maximum Tolerated Dose (MTD) ([3]; monotherapy, Arm B D1 D8 q4w): 45 mg
